This is an account of results in patent US11123340B2, “Small-molecule UT-A-selective urea transport inhibitors” (The Regents of the University of California, priority 2014, dated 2021).

The target of experiment [1] is T1, rat UT-A1 (Rattus norvegicus, UniProt Q62668).
T1 construct: expressed in transfected cells; host or cells: MDCK cells stably co-expressing rat UT-A1, human AQP1 and YFP-H148Q/V163S
T1 sequence (Q62668 1-929): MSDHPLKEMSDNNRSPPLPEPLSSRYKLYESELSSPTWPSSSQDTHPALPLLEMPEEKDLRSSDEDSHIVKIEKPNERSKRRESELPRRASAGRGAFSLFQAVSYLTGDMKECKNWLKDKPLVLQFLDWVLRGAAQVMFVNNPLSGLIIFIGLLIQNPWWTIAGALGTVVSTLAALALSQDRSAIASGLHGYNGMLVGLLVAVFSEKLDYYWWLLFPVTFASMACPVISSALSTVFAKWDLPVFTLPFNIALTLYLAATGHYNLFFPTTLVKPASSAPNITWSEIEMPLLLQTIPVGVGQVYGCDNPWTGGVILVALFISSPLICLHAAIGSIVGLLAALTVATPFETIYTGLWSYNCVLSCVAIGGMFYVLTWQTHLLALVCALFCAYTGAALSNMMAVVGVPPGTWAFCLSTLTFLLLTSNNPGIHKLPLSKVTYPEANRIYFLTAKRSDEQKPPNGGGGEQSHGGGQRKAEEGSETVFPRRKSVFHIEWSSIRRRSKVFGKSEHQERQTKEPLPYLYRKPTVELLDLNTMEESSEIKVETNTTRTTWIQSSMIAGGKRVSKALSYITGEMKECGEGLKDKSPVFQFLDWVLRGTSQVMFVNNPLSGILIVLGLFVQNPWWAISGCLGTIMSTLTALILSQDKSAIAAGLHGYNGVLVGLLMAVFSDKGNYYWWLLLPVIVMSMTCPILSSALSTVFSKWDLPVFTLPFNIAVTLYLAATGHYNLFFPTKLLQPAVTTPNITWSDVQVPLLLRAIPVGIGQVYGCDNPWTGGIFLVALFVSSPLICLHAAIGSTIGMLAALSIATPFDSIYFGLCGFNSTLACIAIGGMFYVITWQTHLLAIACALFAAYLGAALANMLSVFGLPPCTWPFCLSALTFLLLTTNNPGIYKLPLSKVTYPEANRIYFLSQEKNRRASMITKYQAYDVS
Put plainly: UT-A1 inhibition, fluorescence plate reader assay in MDCK cells expressing UT-A1, AQP1 and YFP-H148Q/V163S. In kind it is cell-based. The method, then:
Primary screening was done using a collection of 50,000 chemically diverse, drug-like compounds from ChemDiv (San Diego, Calif.). For analysis of structure-activity relationships, >300 commercially available analogs (ChemDiv and Asinex, Winston-Salem, N.C.) were tested. Cells were plated on black 96-well Costar microplates with clear plastic bottoms (Corning, Corning, N.Y.) at 15,000 cells/well and cultured for 24 h at 37° C. before assay. Microplates containing cultured cells were washed twice with PBS and 150 μL of test compound (25 μM final) in PBS was added. Eighty wells contained test compounds, and the first and last columns of each plate contained negative (dimethyl sulfoxide, DMSO) and positive (0.35 mM phloretin) controls. The assays were done on a plate reader (Tecan Trading AG, Switzerland) equipped with a custom YFP filter set. Each assay consisted of a continuous 15-s read (5 Hz) in which 50 μL of 3.2 M urea in PBS was injected at 1 s (at 130 μL/s) to give a 800 mM final urea gradient.
MDCK cells stably expressing rat UT-A1 (see, e.g., Frohlich et al. (2006) Am J Physiol Cell Physiol. 291, C600-D606), YFP-H148Q/V163 S (see, e.g., Galietta, et al. (2001) FEBS Lett. 499, 220-224) and human AQP1, as described previously (see, e.g., Esteva-Font et al. (2013) Chem Biol. 20, 1235-1244), were grown in Dulbecco's modified Eagle medium (DMEM) containing 10% fetal bovine serum (FBS), penicillin G (100 U/mL), streptomycin (100 μg/mL), zeocin (500 μg/mL), geneticin (600 μg/mL) and Hygromycin (500 μg/mL) at 37° C., 5% CO2. A Cell Clone with bright YFP fluorescence and relatively low AQP1 expression was used for the screen to maximize dynamic range.
In order to identify UT-A inhibitors suitable for testing in rats, a collection of 50,000 synthetic small molecules was screened. As diagrammed in FIG. 1A (top), the fluorescence cell-based screen utilized MDCK cells stably rat expressing UT-A1, water channel AQP1 and the cytoplasmic chloride-sensing fluorescent protein YFP-H148Q/V163S. As described and validated previously (see, e.g., Esteva-Font et al. (2013) Chem Biol. 20, 1235-1244), extracellular addition of urea results in osmotic water efflux and cell shrinking, which increases intracellular chloride concentration and reduces YFP fluorescence. Urea entry results in increasing YFP fluorescence as cells re-swell. Inhibitors of UT-A1 urea transport produce a lesser reduction in fluorescence and slowed recovery.

The target of experiment [2] is T2, rat UT-B (Rattus norvegicus, UniProt P97689).
T2 construct: endogenous in cells; host or cells: rat erythrocytes (whole rat blood)
T2 sequence (P97689 1-384): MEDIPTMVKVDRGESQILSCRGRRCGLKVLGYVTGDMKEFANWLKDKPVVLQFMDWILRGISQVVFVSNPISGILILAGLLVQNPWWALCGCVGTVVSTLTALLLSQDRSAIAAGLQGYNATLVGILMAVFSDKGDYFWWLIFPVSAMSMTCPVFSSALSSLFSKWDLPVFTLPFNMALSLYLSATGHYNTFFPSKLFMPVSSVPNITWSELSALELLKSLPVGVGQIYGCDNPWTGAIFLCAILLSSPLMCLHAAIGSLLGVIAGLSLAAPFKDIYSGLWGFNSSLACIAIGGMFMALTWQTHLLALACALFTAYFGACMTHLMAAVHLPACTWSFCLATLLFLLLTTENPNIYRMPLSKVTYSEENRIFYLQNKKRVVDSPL
Put plainly: UT-B inhibition, erythrocyte lysis assay. In kind it is cell-based. As to conditions: for IC50: rat erythrocytes. The method, then:
As described (see, e.g., Levin et al. (2007) FASEB J. 21, 551-563), whole rat blood was diluted to a hematocrit of ˜1.5% in PBS containing 1.25 M acetamide and 5 mM glucose. Erythrocyte suspensions (100 μL) were added to 96-well round-bottom microplates and test compounds (1 μL) were added. After 15 min incubation, 20 μL of the erythrocyte suspension was added rapidly to each well containing 180 μL of PBS. Following vigorous mixing, erythrocyte lysis was quantified by absorbance at 710 nm. Non-lysed controls (isosmolar buffer) and lysed controls (0.7 mM phloretin) were added in each plate as negative and positive controls, respectively. Percentage erythrocyte lysis was computed as: % lysis=100% (Aneg−Atest)/(Aneg−Apos), where A is absorbance at 710 nm.
Inhibitor selectivity for rat UT-A1 versus UT-B was investigated using an erythrocyte lysis assay of rat UT-B urea transport, which involved measurement of hypotonic lysis (by near-infrared absorbance) of acetamide-loaded erythrocytes following rapid dilution into acetamide-free buffer.

In experiment [3] the test system is UT. The note with it: literature; cited from earlier work.

Bounds are passed on as bounds.

Take `COc1ccc(C)cc1S(=O)(=O)Nc1cccc(N2CCCS2(=O)=O)c1` [UTA1inh-F01]: the values for the IC50 in experiment [1] and in experiment [2] were 1 µM and 6 µM, respectively.

As to `COc1ccc(F)cc1S(=O)(=O)Nc1cc(N2CCCS2(=O)=O)ccc1C` [UTA1inh-F07], the half-inhibitory concentration (IC50) in experiment [1] is 15 µM; in experiment [2] it was more than 75 µM.

Turning to `COc1ccc(N2CCCS2(=O)=O)cc1NS(=O)(=O)c1cc(C)ccc1OC` [UTA1inh-F09], the IC50 in experiment [1] is 1 µM; in experiment [2], 8 µM.

In the case of `COc1ccc(F)cc1S(=O)(=O)Nc1cccc(N2CCCS2(=O)=O)c1` [UTA1inh-F04], the concentration for half-maximal inhibition (IC50) was 5 µM in experiment [1] and more than 75 µM in experiment [2].

On to `Cc1ccc(C)c(S(=O)(=O)Nc2cccc(N3CCCS3(=O)=O)c2)c1` [UTA1inh-F02], for which the half-inhibitory concentration (IC50) in experiment [1] is 15 µM; in experiment [2] it was more than 75 µM.

On to `COc1cc(C)c(C)cc1S(=O)(=O)Nc1cc(N2CCCS2(=O)=O)ccc1C` [UTA1inh-F08], for which the half-inhibitory concentration (IC50) in experiment [1] was determined as 30 µM; in experiment [2], 20 µM.

`COc1ccc(OC)c(S(=O)(=O)Nc2ccc(Cl)c(N3CCCS3(=O)=O)c2)c1` [UTA1inh-F12]: the IC50 in experiment [1] stood at 5 µM.

The compound `COc1cc(C)c(C)cc1S(=O)(=O)Nc1ccc(Cl)c(N2CCCS2(=O)=O)c1` [UTA1inh-F13] gave a concentration for half-maximal inhibition (IC50) in experiment [1] of 8 µM. This IC50 lies about 1.6-fold higher than the previous one.

As to `Cc1cc(C)c(S(=O)(=O)Nc2cccc(N3CCCS3(=O)=O)c2)cc1C` [UTA1inh-F03], the IC50 in experiment [1] turned out to be 3 µM; in experiment [2], 15 µM.

For the compound `O=C(CCc1ccc(O)cc1)c1c(O)cc(O)cc1O` [phloretin], in experiment [3], the concentration exhibiting activity was more than 0.5 mM.

Take `COc1cc(C)c(C)cc1S(=O)(=O)Nc1cccc(N2CCCS2(=O)=O)c1` [UTA1inh-F05]: the half-inhibitory concentration (IC50) in experiment [1] was found to be 3 µM; in experiment [2] it was 20 µM.

For `CC(=O)Nc1ccc(-c2csc(C)n2)cc1` [UTA1inh-E03], the IC50 in experiment [1] and in experiment [2] was more than 50 µM in each case.

In turn, `CC(=O)Nc1ccc(-c2csc(-c3ccccc3)n2)cc1` [UTA1inh-E01] came in with an IC50 in experiment [1] of 3 µM. Also, the “selectivity for UT-A1 versus UT-B” value in experiment [2] (rat UT-A1 versus rat UT-B) is “high selectivity”.

As to `COc1ccc(N2CCCS2(=O)=O)cc1NS(=O)(=O)c1cc(C)ccc1C` [UTA1inh-F10], the IC50 in experiment [1] is 5 µM; in experiment [2], more than 75 µM.

Consider `Cc1ccc(C)c(S(=O)(=O)Nc2cc(N3CCCS3(=O)=O)ccc2C)c1` [UTA1inh-F06], for which the IC50 was 10 µM in experiment [1] and more than 75 µM in experiment [2].

A word on the IC50: it is the concentration at which inhibition is half-maximal. Higher therefore signals weaker potency.
